Measurements reported in patent publication US20040024024A1, “Aromatic sulfone hydroxamates and their use as protease inhibitors” (priority 2001, published 2004).
pIC50: −log10 of the molar value.

What was measured:
Assay in all cases: In vitro MMP inhibition, IC50 determination (fluorogenic substrate I)
Assay type in all cases: biochemical
Human recombinant MMP-1 = target: T1, Human recombinant MMP-1 (Homo sapiens, UniProt P03956)
T1 construct: made in house; host or cells: MMP-1-transfected HT-1080 cells (spent media)
T1 sequence (P03956 100-469): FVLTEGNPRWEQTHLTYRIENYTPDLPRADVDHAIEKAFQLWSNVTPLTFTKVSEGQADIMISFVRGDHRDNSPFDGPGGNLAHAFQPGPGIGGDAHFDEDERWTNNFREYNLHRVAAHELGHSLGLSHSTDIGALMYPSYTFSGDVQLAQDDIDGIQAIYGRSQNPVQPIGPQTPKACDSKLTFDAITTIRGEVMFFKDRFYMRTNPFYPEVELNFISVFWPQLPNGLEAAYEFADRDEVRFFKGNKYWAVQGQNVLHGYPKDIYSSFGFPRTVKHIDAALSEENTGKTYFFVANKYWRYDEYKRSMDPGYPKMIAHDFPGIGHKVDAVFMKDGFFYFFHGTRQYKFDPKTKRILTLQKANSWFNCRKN
Procedure, shortened: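 Inhibitor dilutions were made in 100 mM Tris-HCl/100 mM NaCl/10 mM CaCl2 buffer, pH 7.5, and incubated at room temperature with activated proenzyme (from transfected HT-1080 media; APMA or trypsin) and 4 μM quenched methoxycoumarin peptide substrate. Loss of 415 nm fluorescence (328 nm excitation) against concentration gave IC50.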

Human recombinant MMP-2 = target: T2, Human recombinant MMP-2 (Homo sapiens, UniProt P08253)
T2 construct: made in house; host or cells: MMP-2-transfected p2AHT2 cells
T2 sequence (P08253 110-660): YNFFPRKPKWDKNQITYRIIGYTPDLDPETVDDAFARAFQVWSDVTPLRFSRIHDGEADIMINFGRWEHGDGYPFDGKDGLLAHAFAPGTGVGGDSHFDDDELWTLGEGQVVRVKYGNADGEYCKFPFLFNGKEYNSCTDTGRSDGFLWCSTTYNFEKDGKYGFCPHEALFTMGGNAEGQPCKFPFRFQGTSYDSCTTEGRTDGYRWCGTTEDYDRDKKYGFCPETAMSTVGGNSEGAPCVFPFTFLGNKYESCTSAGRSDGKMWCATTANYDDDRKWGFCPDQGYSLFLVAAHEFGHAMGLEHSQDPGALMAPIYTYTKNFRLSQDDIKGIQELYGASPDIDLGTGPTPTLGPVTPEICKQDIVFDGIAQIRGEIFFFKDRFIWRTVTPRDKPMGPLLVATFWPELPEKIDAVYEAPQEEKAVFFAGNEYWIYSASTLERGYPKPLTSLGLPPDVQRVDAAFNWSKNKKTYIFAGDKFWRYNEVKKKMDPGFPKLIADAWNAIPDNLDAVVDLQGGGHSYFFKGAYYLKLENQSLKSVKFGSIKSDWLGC
Procedure, shortened: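 IC50 was derived from the concentration-dependent fall in fluorescence (ex 328, em 415 nm) on Gly-Leu cleavage of 4 μM MCA/Dpa-quenched substrate I. Assays ran at room temperature in pH 7.5 Tris/NaCl/CaCl2/Brij buffer with MMP-2 activated by trypsin or APMA; inhibitors were diluted from 1% DMSO stocks.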

Human recombinant MMP-9 = target: T3, Human recombinant MMP-9 (Homo sapiens, UniProt P14780)
T3 construct: made in house; host or cells: MMP-9-transfected HT1080 cells (spent media)
Procedure, shortened: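 Reduction in fluorescence (328 nm excitation, 415 nm emission) from cleavage of 4 μM quenched peptide substrate I, measured at room temperature against inhibitor concentration, gave IC50. Enzyme: trypsin- or APMA-activated MMP-9 purified from transfected HT1080 medium; buffer 100 mM Tris, 100 mM NaCl, 10 mM CaCl2, pH 7.5.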

Human recombinant MMP-13 = target: T4, Human recombinant MMP-13 (Homo sapiens, UniProt P45452)
T4 construct: made in house; host or cells: baculovirus / insect cells
Procedure, shortened: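 Fluorescence at 415 nm (excitation 328 nm) reports Gly-Leu cleavage of 4 μM quenched methoxycoumarin peptide substrate I. Human recombinant MMP-13, activated by trypsin or APMA, was incubated at room temperature with varied inhibitor concentrations in pH 7.5 Tris/NaCl/CaCl2 buffer; IC50 derived from reduced fluorescence.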

Human recombinant MMP-14 = target: T5, Human recombinant MMP-14 (Homo sapiens, UniProt P50281)
T5 construct: The catalytic domain enzyme was expressed in E. coli inclusion bodies, solubilized in urea; made in house
Procedure, shortened: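 IC50 came from reduced fluorescence (ex 328 nm, em 415 nm) as inhibitor concentration rose, with 4 μM substrate I cleaved at Gly-Leu. Room-temperature incubation in pH 7.5 Tris buffer with 10 mM CaCl2; the E. coli-expressed, refolded MMP-14 catalytic domain was activated with trypsin or APMA.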

[1] = value outside parentheses (Ki in parenthesis)
[2] = substrate (I) 4 μM, room temperature, values not in parenthesis

T3 sequence (P14780 107-707 limits assumed): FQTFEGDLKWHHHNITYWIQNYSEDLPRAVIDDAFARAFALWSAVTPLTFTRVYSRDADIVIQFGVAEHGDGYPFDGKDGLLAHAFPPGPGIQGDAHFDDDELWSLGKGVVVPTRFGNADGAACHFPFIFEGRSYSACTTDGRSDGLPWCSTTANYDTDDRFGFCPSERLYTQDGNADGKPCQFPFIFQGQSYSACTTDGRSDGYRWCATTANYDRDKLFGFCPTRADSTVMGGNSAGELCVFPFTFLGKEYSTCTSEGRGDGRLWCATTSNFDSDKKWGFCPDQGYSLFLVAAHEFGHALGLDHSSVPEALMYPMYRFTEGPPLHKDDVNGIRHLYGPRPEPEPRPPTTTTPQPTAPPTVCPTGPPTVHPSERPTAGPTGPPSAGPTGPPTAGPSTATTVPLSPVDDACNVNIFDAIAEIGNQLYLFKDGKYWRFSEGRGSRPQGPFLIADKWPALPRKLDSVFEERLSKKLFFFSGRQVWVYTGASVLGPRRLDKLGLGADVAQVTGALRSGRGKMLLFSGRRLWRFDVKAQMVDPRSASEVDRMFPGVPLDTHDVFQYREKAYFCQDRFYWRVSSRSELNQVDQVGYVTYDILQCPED

Compound | pIC50 (Human recombinant MMP-1; [1]) | pIC50 (Human recombinant MMP-2; [1]) | pIC50 (Human recombinant MMP-9; [1]) | pIC50 (Human recombinant MMP-13; [1]) | pIC50 (Human recombinant MMP-14; [1]) | further results
O=C(NO)C1(S(=O)(=O)c2ccc(OCCCc3nc(-c4ccc(F)cc4)no3)cc2)CCOCC1 [Example 240] | – | – | – | – | – | pIC50 (Human recombinant MMP-1; value outside parenthesis): < 5.00; pIC50 (Human recombinant MMP-2; value outside parenthesis): 7.08; pIC50 (Human recombinant MMP-9; value outside parenthesis): 5.85; pIC50 (Human recombinant MMP-13; value outside parenthesis): 9.15; pIC50 (Human recombinant MMP-14; value outside parenthesis): < 5.00
CC(C)(C)c1ccc(C(=O)CCCOc2ccc(S(=O)(=O)C3(C(=O)NO)CCOCC3)cc2)cc1 [Example 355] | < 5.00 | 7.76 | 5.97 | 8.96 | 5.44 | –
COc1ccc2sc(SCCCOc3ccc(S(=O)(=O)C4(C(=O)NO)CCOCC4)cc3)nc2c1 [Example 285] | – | – | – | – | – | pIC50 (Human recombinant MMP-1; value outside parenthesis): < 5.00; pIC50 (Human recombinant MMP-2; value outside parenthesis): 7.78; pIC50 (Human recombinant MMP-9; value outside parenthesis): 7.63; pIC50 (Human recombinant MMP-13; value outside parenthesis): 8.74; pIC50 (Human recombinant MMP-14; value outside parenthesis): < 5.00
O=C(NO)C1(S(=O)(=O)c2ccc(OCCOCc3cccc(F)c3)cc2)CCOCC1 [Example 663] | – | – | – | – | – | pIC50 (Human recombinant MMP-1; value outside parentheses): < 5.00; pIC50 (Human recombinant MMP-2; value outside parentheses): 7.60; pIC50 (Human recombinant MMP-9; value outside parentheses): 7.30; pIC50 (Human recombinant MMP-13; value outside parentheses): 8.44; pIC50 (Human recombinant MMP-14; value outside parentheses): 5.48
O=C(CCCOc1ccc(S(=O)(=O)C2(C(=O)NO)CCOCC2)cc1)Nc1ccccc1O [Example 350] | 5.48 | 8.59 | 6.57 | 9.30 | 5.57 | –
COc1ccc(C(=O)CCCOc2ccc(S(=O)(=O)C3(C(=O)NO)CCOCC3)cc2)cc1 [Example 491] | – | – | – | – | – | pIC50 (Human recombinant MMP-1; value outside parentheses): 5.14; pIC50 (Human recombinant MMP-2; value outside parentheses): 8.17; pIC50 (Human recombinant MMP-9; value outside parentheses): 7.03; pIC50 (Human recombinant MMP-13; value outside parentheses): 9.10; pIC50 (Human recombinant MMP-14; value outside parentheses): 6.01
COCCN1CCC(C(=O)NO)(S(=O)(=O)c2ccc(OCCCSc3nc4ccccc4s3)cc2)CC1 [Example 615] | – | – | – | – | – | pIC50 (Human recombinant MMP-1; value outside parentheses): < 5.00; pIC50 (Human recombinant MMP-2; value outside parentheses): 8.96; pIC50 (Human recombinant MMP-9; value outside parentheses): 8.44; pIC50 (Human recombinant MMP-13; value outside parentheses): 9.40; pIC50 (Human recombinant MMP-14; value outside parentheses): 5.17
CN(CCc1ccccc1)S(=O)(=O)CCCOc1ccc(S(=O)(=O)C2(C(=O)NO)CCOCC2)cc1 [Example 292] | 6.01 | 7.84 | 6.79 | 8.62 | < 5.00 | –
COC(=O)CCCOc1ccc(S(=O)(=O)C2(C(=O)NO)CCOCC2)cc1 [Example 274] | – | – | – | – | – | pIC50 (Human recombinant MMP-1; value outside parenthesis): 5.01; pIC50 (Human recombinant MMP-2; value outside parenthesis): 7.81; pIC50 (Human recombinant MMP-9; value outside parenthesis): 7.47; pIC50 (Human recombinant MMP-13; value outside parenthesis): 8.39; pIC50 (Human recombinant MMP-14; value outside parenthesis): < 5.00
Cc1ccccc1-c1nnc(CCCOc2ccc(S(=O)(=O)C3(C(=O)NO)CCOCC3)cc2)o1 [Example 32, tetrahydro-N-hydroxy-4-[[4-[3-[5-(2-methylphenyl)-1,3,4-oxadiazol-2-yl]propoxy]phenyl]sulfonyl]-2H-pyran-4-carboxamide] | – | – | – | – | – | pIC50 (Human recombinant MMP-1; [2]): < 5.00; pIC50 (Human recombinant MMP-2; [2]): 6.66; pIC50 (Human recombinant MMP-9; [2]): 5.39; pIC50 (Human recombinant MMP-13; [2]): 9.10; pIC50 (Human recombinant MMP-14; [2]): < 5.00
O=C1c2cc(Cl)c(Cl)cc2C(=O)N1CCCOc1ccc(S(=O)(=O)C2(C(=O)NO)CCOCC2)cc1 [Example 333] | < 5.00 | 6.18 | 5.49 | 8.74 | < 5.00 | –

The next lines start with results.

pIC50 (Human recombinant MMP-1; [1]) | pIC50 (Human recombinant MMP-2; [1]) | pIC50 (Human recombinant MMP-9; [1]) | pIC50 (Human recombinant MMP-13; [1]) | pIC50 (Human recombinant MMP-14; [1]) | Compound | further results
< 5.00 | < 5.00 | < 5.00 | 7.40 | < 5.00 | COc1ccc(C(=O)NCC(C)(C)COc2ccc(S(=O)(=O)C3(C(=O)NO)CCOCC3)cc2)cc1 [Example 392] | –
< 5.00 | 5.82 | < 5.00 | 7.19 | < 5.00 | COc1ccc(NC(=O)NCCOc2ccc(S(=O)(=O)C3(C(=O)NO)CCOCC3)cc2)cc1 [Example 418] | –
5.71 | 8.43 | 7.39 | 8.15 | 7.24 | O=C(NO)C1(S(=O)(=O)c2ccc(OCCCO)cc2)CCOCC1 [Example 449] | –
< 5.00 | 9.00 | 7.47 | 8.30 | 5.84 | O=C(NO)C1(S(=O)(=O)c2ccc(OCCC3CCCCC3)cc2)CCOCC1 [Example 478] | –
